# Laboratory results as given in PubChem BioAssay AID2060496 (Molecular Pharmacology Branch, DTP, NCI, 2025).
# Tested on: 276233-004-R-J1-PDC complex spheroid viability
# Test: Anticancer human tumor 276233-004-R-J1-PDC patient-derived colon adenocarcinoma cell line growth inhibition [GQUAD]
# Details: for IC50: curve of first compound; for viability, T/C: stronger effect = lower value
# Procedure, shortened: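 Tumor cells were grown as complex spheroids with HUVEC endothelial cells and mesenchymal stem cells as stroma. G-quadruplex stabilizers were combined with targeted agents over half-log dilutions from near the clinical Cmax, or from 10 microM.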
# [1] = second compound 0.0316 µM, first compound 0.0316 µM
# [2] = second compound 0.0316 µM, first compound 0.316 µM
# [3] = second compound 0.1 µM, first compound 0.0316 µM
# [4] = second compound 0.1 µM, first compound 0.316 µM
# [5] = second compound 0.316 µM, first compound 0.0316 µM
# [6] = second compound 0.316 µM, first compound 0.316 µM
# [7] = second compound 1 µM, first compound 0.0316 µM
# [8] = second compound 1 µM, first compound 0.316 µM
# [9] = second compound 3.16 µM, first compound 0.0316 µM
# [10] = second compound 3.16 µM, first compound 0.316 µM
# [11] = second compound 10 µM, first compound 0.0316 µM
# [12] = second compound 10 µM, first compound 0.316 µM
# [13] = second compound 0.0316 µM, first compound 0.1 µM
# [14] = second compound 0.0316 µM, first compound 1 µM
# [15] = second compound 0.0316 µM, first compound 3.16 µM
# [16] = second compound 0.0316 µM, first compound 10 µM
# [17] = second compound 0.1 µM, first compound 0.1 µM
# [18] = second compound 0.1 µM, first compound 1 µM
# [19] = second compound 0.1 µM, first compound 3.16 µM
# [20] = second compound 0.1 µM, first compound 10 µM
# [21] = second compound 0.316 µM, first compound 0.1 µM
# [22] = second compound 0.316 µM, first compound 1 µM
# [23] = second compound 0.316 µM, first compound 3.16 µM
# [24] = second compound 0.316 µM, first compound 10 µM
# [25] = second compound 1 µM, first compound 0.1 µM
# [26] = second compound 1 µM, first compound 1 µM
# [27] = second compound 1 µM, first compound 3.16 µM
# [28] = second compound 1 µM, first compound 10 µM
# [29] = second compound 3.16 µM, first compound 0.1 µM
# [30] = second compound 3.16 µM, first compound 1 µM
# [31] = second compound 3.16 µM, first compound 3.16 µM
# [32] = second compound 3.16 µM, first compound 10 µM
# [33] = second compound 10 µM, first compound 0.1 µM
# [34] = second compound 10 µM, first compound 1 µM
# [35] = second compound 10 µM, first compound 3.16 µM
# [36] = second compound 10 µM, first compound 10 µM
# 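Note: spheroids exposed to drugs for seven days.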
# 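Throughout, for viability, T/C: 100% = DMSO vehicle control viability.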
smiles,measurement,setting,value
Cn1ncnc1[C@H]1c2n[nH]c(=O)c3cc(F)cc(c23)N[C@@H]1c1ccc(F)cc1 + Cc1[nH]c2ccc(F)cc2c1-c1nc2c3cccnc3c3ncccc3c2[nH]1,IC50,second compound 0.0316 µM,> 0.316 µM
same,IC50,second compound 0.1 µM,> 0.316 µM
same,IC50,second compound 0.316 µM,> 0.316 µM
same,IC50,second compound 1 µM,> 0.316 µM
same,IC50,second compound 3.16 µM,> 0.316 µM
same,IC50,second compound 10 µM,< 0.000999 µM
same,"viability, T/C","second compound 0.0316 µM, first compound 0.000999 µM",89%
same,"viability, T/C","second compound 0.0316 µM, first compound 0.00316 µM",99.2%
same,"viability, T/C","second compound 0.0316 µM, first compound 0.00999 µM",104%
same,"viability, T/C",[1],94.1%
same,"viability, T/C","second compound 0.0316 µM, first compound 0.0999 µM",95.6%
same,"viability, T/C",[2],90.7%
same,"viability, T/C","second compound 0.1 µM, first compound 0.000999 µM",91.2%
same,"viability, T/C","second compound 0.1 µM, first compound 0.00316 µM",97.8%
same,"viability, T/C","second compound 0.1 µM, first compound 0.00999 µM",99.9%
same,"viability, T/C",[3],88.5%
same,"viability, T/C","second compound 0.1 µM, first compound 0.0999 µM",98%
same,"viability, T/C",[4],94.8%
same,"viability, T/C","second compound 0.316 µM, first compound 0.000999 µM",94.7%
same,"viability, T/C","second compound 0.316 µM, first compound 0.00316 µM",79.9%
same,"viability, T/C","second compound 0.316 µM, first compound 0.00999 µM",86.6%
same,"viability, T/C",[5],99.2%
same,"viability, T/C","second compound 0.316 µM, first compound 0.0999 µM",100%
same,"viability, T/C",[6],93%
same,"viability, T/C","second compound 1 µM, first compound 0.000999 µM",63.5%
same,"viability, T/C","second compound 1 µM, first compound 0.00316 µM",66.6%
same,"viability, T/C","second compound 1 µM, first compound 0.00999 µM",78.7%
same,"viability, T/C",[7],72.7%
same,"viability, T/C","second compound 1 µM, first compound 0.0999 µM",70.6%
same,"viability, T/C",[8],84.7%
same,"viability, T/C","second compound 3.16 µM, first compound 0.000999 µM",56.3%
same,"viability, T/C","second compound 3.16 µM, first compound 0.00316 µM",66.5%
same,"viability, T/C","second compound 3.16 µM, first compound 0.00999 µM",49.2%
same,"viability, T/C",[9],54.2%
same,"viability, T/C","second compound 3.16 µM, first compound 0.0999 µM",60.4%
same,"viability, T/C",[10],57.4%
same,"viability, T/C","second compound 10 µM, first compound 0.000999 µM",50.3%
same,"viability, T/C","second compound 10 µM, first compound 0.00316 µM",47.3%
same,"viability, T/C","second compound 10 µM, first compound 0.00999 µM",50.5%
same,"viability, T/C",[11],62.7%
same,"viability, T/C","second compound 10 µM, first compound 0.0999 µM",62%
same,"viability, T/C",[12],44.2%
CC1COCCN1c1cc(C2(O)CC3CCC(C2)O3)c2cnn(-c3ccn[nH]3)c2n1 (stereo not drawn) + Cc1[nH]c2ccc(F)cc2c1-c1nc2c3cccnc3c3ncccc3c2[nH]1,IC50,second compound 0.0316 µM,> 10 µM
same,IC50,second compound 0.1 µM,3.11 µM
same,IC50,second compound 0.316 µM,2.61 µM
same,IC50,second compound 1 µM,0.665 µM
same,IC50,second compound 3.16 µM,0.0712 µM
same,IC50,second compound 10 µM,< 0.0316 µM
same,"viability, T/C",[1],91%
same,"viability, T/C",[13],68%
same,"viability, T/C",[2],79%
same,"viability, T/C",[14],72.5%
same,"viability, T/C",[15],55.6%
same,"viability, T/C",[16],51%
same,"viability, T/C",[3],74.6%
same,"viability, T/C",[17],87%
same,"viability, T/C",[4],74.8%
same,"viability, T/C",[18],60.4%
same,"viability, T/C",[19],52.8%
same,"viability, T/C",[20],44.5%
same,"viability, T/C",[5],87.2%
same,"viability, T/C",[21],76.1%
same,"viability, T/C",[6],57.4%
same,"viability, T/C",[22],62.7%
same,"viability, T/C",[23],54%
same,"viability, T/C",[24],36%
same,"viability, T/C",[7],60.4%
same,"viability, T/C",[25],70%
same,"viability, T/C",[8],65.6%
same,"viability, T/C",[26],41.7%
same,"viability, T/C",[27],39.6%
same,"viability, T/C",[28],27.9%
same,"viability, T/C",[9],51.4%
same,"viability, T/C",[29],50.9%
same,"viability, T/C",[10],43.2%
same,"viability, T/C",[30],36%
same,"viability, T/C",[31],33.2%
same,"viability, T/C",[32],26.2%
same,"viability, T/C",[11],46.3%
same,"viability, T/C",[33],44.3%
same,"viability, T/C",[12],42.5%
same,"viability, T/C",[34],35.9%
same,"viability, T/C",[35],26.7%
same,"viability, T/C",[36],21.6%
C=CC(=O)N1CCN(c2nc(=O)n(-c3c(C)ccnc3C(C)C)c3nc(-c4c(O)cccc4F)c(F)cc23)C(C)C1 (stereo not drawn) + Cc1[nH]c2ccc(F)cc2c1-c1nc2c3cccnc3c3ncccc3c2[nH]1,IC50,second compound 0.0316 µM,> 10 µM
same,IC50,second compound 0.1 µM,> 10 µM
same,IC50,second compound 0.316 µM,> 10 µM
same,IC50,second compound 1 µM,> 10 µM
same,IC50,second compound 3.16 µM,> 10 µM
same,IC50,second compound 10 µM,< 0.0316 µM
same,"viability, T/C",[1],106%
same,"viability, T/C",[13],95.5%
same,"viability, T/C",[2],85.4%
same,"viability, T/C",[14],90%
same,"viability, T/C",[15],95.2%
same,"viability, T/C",[16],88.5%
same,"viability, T/C",[3],102%
same,"viability, T/C",[17],91.9%
same,"viability, T/C",[4],103%
same,"viability, T/C",[18],108%
same,"viability, T/C",[19],81.4%
same,"viability, T/C",[20],93%
same,"viability, T/C",[5],75.5%
same,"viability, T/C",[21],94.9%
same,"viability, T/C",[6],74.5%
same,"viability, T/C",[22],83.4%
same,"viability, T/C",[23],87.4%
same,"viability, T/C",[24],84.4%
same,"viability, T/C",[7],81.4%
same,"viability, T/C",[25],90.4%
same,"viability, T/C",[8],78.4%
same,"viability, T/C",[26],73.4%
same,"viability, T/C",[27],84.9%
same,"viability, T/C",[28],80.9%
same,"viability, T/C",[9],70.7%
same,"viability, T/C",[29],50.6%
same,"viability, T/C",[10],49.4%
same,"viability, T/C",[30],52.3%
same,"viability, T/C",[31],68.6%
same,"viability, T/C",[32],52.2%
same,"viability, T/C",[11],39%
same,"viability, T/C",[33],38.7%
same,"viability, T/C",[12],61%
same,"viability, T/C",[34],53.1%
same,"viability, T/C",[35],56%
same,"viability, T/C",[36],51%
O=c1[nH]cc(F)c(=O)[nH]1 + Cc1cnc(CNC(=O)c2c(=O)c3ccc(N4CCCN(C)CC4)nc3n3c2sc2ccccc23)cn1,IC50,second compound 0.0316 µM,> 10 µM
same,IC50,second compound 0.1 µM,> 10 µM
same,IC50,second compound 0.316 µM,> 10 µM
same,IC50,second compound 1 µM,> 10 µM
same,IC50,second compound 3.16 µM,> 10 µM
same,IC50,second compound 10 µM,> 10 µM
same,"viability, T/C",[1],86.8%
same,"viability, T/C",[13],82.2%
same,"viability, T/C",[2],90.7%
same,"viability, T/C",[14],81.2%
same,"viability, T/C",[15],98.8%
same,"viability, T/C",[16],97.5%
same,"viability, T/C",[3],97.1%
same,"viability, T/C",[17],96.5%
same,"viability, T/C",[4],89.1%
same,"viability, T/C",[18],89.7%
same,"viability, T/C",[19],95.1%
same,"viability, T/C",[20],102%
same,"viability, T/C",[5],87.4%
same,"viability, T/C",[21],99.8%
same,"viability, T/C",[6],99.1%
same,"viability, T/C",[22],85.6%
same,"viability, T/C",[23],98.6%
same,"viability, T/C",[24],99.1%
same,"viability, T/C",[7],78.2%
same,"viability, T/C",[25],87.6%
same,"viability, T/C",[8],80.4%
same,"viability, T/C",[26],90%
same,"viability, T/C",[27],92.7%
same,"viability, T/C",[28],94.4%
same,"viability, T/C",[9],82.7%
same,"viability, T/C",[29],74.9%
same,"viability, T/C",[10],79.2%
same,"viability, T/C",[30],82.8%
same,"viability, T/C",[31],83.7%
same,"viability, T/C",[32],82.2%
same,"viability, T/C",[11],69.8%
same,"viability, T/C",[33],79.3%
same,"viability, T/C",[12],80.5%
same,"viability, T/C",[34],86.2%
same,"viability, T/C",[35],61.8%
same,"viability, T/C",[36],79.6%
